According to patent US12702693B2, “Treatment of cystic fibrosis by delivery of codon-optimized mRNA encoding CFTR” (Translate Bio, Inc., priority 2017, dated 2026):

How the values were obtained:
[1] = test system: human bronchial epithelial cells; experiment: Ussing chamber assay of Forskolin-induced chloride channel activity; type: cell-based; details: all groups
Description: The changes in chloride transport across the bronchial epithelial cell membrane was measured by short circuit current output in an Ussing epithelial voltage clamp apparatus (i.e., a Ussing chamber). Specifically, using an established Ussing Chamber procedure (Charles River Laboratories), hCFTR mRNA encapsulated in a liposome comprising ICE, DOPE, and a PEG-modified lipid was incubated for 2 or 4 hours on the apical (mucosal) or basolateral (serosal) sides, or both sides, of human bronchial epithelial cells. A buffer blank also was included as a control, for example, to assess chloride transport by endogenous CFTR in the cells. Next, Forskolin-induced chloride channel activity was measured using the Ussing chamber assay.

[2] = available data; cited from earlier work

| SMILES | chloride activity after addition of CFTR inhibitor [1] | mutagenicity/genotoxicity data [2] |
| --- | --- | --- |
| O=C(O)c1ccc(/C=C2\SC(=S)N(c3cccc(C(F)(F)F)c3)C2=O)cc1 [CFTR inhibitor-172] | inhibited | – |
| CC(C)CCC[C@@H](C)[C@H]1CC[C@H]2[C@@H]3CC=C4C[C@@H](O)CC[C@]4(C)[C@H]3CC[C@]12C [cholesterol] | – | negative |
| c1c[nH]cn1 [imidazole] | – | negative |
| CCC(=O)O [propionic acid] | – | negative |
